# Results as given in US20060223888A1, “Valproic acid analogues and pharmaceutical composition thereof” (priority 2002, published 2006).
# Tests used:
# rat liver = settings: cited from earlier work
# PTZ-induced seizures = test: ED50 against PTZ-induced seizures, i.p.; format: in vivo; settings: Rattus norvegicus, ip, male Sprague-Dawley rats (n = 8)
# Text: These compounds were investigated for anticonvulsant activity in mice^13 and rats (see results in Table 4) and found to be equivalent in potency to VPA.
# [1] = tested on: Subcutaneous Methylene Tetrazole (SCMET) seizures; test: Subcutaneous methylene tetrazole (SCMET) test, rats, oral, time to peak effect; format: in vivo; settings: 75 mg/kg
# [2] = tested on: Maximal Electroshock (MES) seizures; test: Maximal electroshock (MES) test, rats, oral, time to peak effect; format: in vivo; settings: 50 mg/kg
# Description: Anticonvulsant testing was conducted at the antiepileptic screening facility of the National Institute for Neurological Disorders and Stroke in Rockville, Md. Initial tests were done in mice (i.p.) followed by oral and i.p. administration to rats. Neurotoxicity was evaluated with the rotarod test. Maximal electroshock (MES) and subcutaneous methylene tetrazole (SCMET) or pentylene tetrazole (PTZ) were the most common tests performed. Typical procedures are described below. MES Assay. Male CD1/CR mice weighing from 25-35 g are administrated test compounds 15 minutes prior to MES. Mice are challenged by pulsed electrical stimulation (50 mA, 0.4 s duration, pulse width 0.5 ms, 60 pulses/sec) via corneal electrodes to induce seizure. Mice are observed post-stimulation for the onset of tonic seizures, and considered to have a tonic seizure only if there is a prolonged extension (>90° from plane of body) of the hind legs. […] Ten mice are used in each group. A number of VPA analogues and their sodium salts were tested for their efficacy as anticonvulsants and for their toxicity using the MES Assay and rotarod test.
# [3] = Pharmacokinetics and tissue distribution (plasma, liver, brain) after i.p. administration; format: in vivo, male Sprague-Dawley rats; settings: rat; for Affinity for / accumulation in the liver (in words): FIG. 1, Table 5
# [4] = tested on: rotarod test (neurotoxicity); test: Rotarod neurotoxicity test (TOX), rats, oral; format: in vivo
# Description: Anticonvulsant testing was conducted at the antiepileptic screening facility of the National Institute for Neurological Disorders and Stroke in Rockville, Md. Initial tests were done in mice (i.p.) followed by oral and i.p. administration to rats. Neurotoxicity was evaluated with the rotarod test. Maximal electroshock (MES) and subcutaneous methylene tetrazole (SCMET) or pentylene tetrazole (PTZ) were the most common tests performed. Typical procedures are described below.
# Rotorod Test. Acute drug induced neurotoxicity is detected in mice using the standard rotorod test. An untreated mouse, when placed on a 6 rpm rotation rod, can maintain its equilibrium for a prolonged period of time.
# A number of VPA analogues and their sodium salts were tested for their efficacy as anticonvulsants and for their toxicity using the MES Assay and rotarod test. In particular, the following compounds (as shown in the structures below) were tested: 332059U (sodium salt of VPA), 325071 (known compound, tested for comparison), 325073A (metabolite of VPA), 332060U (4,4-difluoro-2-propylpentanoate, fluorinated analogue of VPA), 341031, and 341032U (conjugated (E,Z)-2,3′-diene VPA analogues).
# [5] = children born to mothers treated with VPA; cited from earlier work
smiles,measurement,setting,value
"C=CCC(CCC)C(=O)O (stereo not shown) [4-ene VPA, 2-propylpent-4-enoic acid]",Lipid accumulation in rat liver,rat liver,induce massive lipid accumulation in rat liver
"C/C=C\C(=C/CC)C(=O)[O-].[Na+] [325073A, Sodium (2E)-2-[(1Z)-prop-1-en-1-yl]pent-2-enoate]",ED50,PTZ-induced seizures,168 mg/kg
same,SCMET N/F = number of animals protected relative to number tested,[1]; 0.25 h,1/4
same,SCMET N/F = number of animals protected relative to number tested,[1]; 0.5 h,0/4
same,SCMET N/F = number of animals protected relative to number tested,[1]; 1.0 h,0/4
same,SCMET N/F = number of animals protected relative to number tested,[1]; 2.0 h,0/4
same,SCMET N/F = number of animals protected relative to number tested,[1]; 4.0 h,0/4
same,MES N/F = number of animals protected relative to number tested,[2]; 0.25 h,2/4
same,MES N/F = number of animals protected relative to number tested,[2]; 0.5 h,0/4
same,MES N/F = number of animals protected relative to number tested,[2]; 1.0 h,0/4
same,MES N/F = number of animals protected relative to number tested,[2]; 2.0 h,0/4
same,Distribution to the brain (in words),[3]; FIG. 1,rapid distribution to the brain
same,Affinity for / accumulation in the liver (in words),"[3]; listed as (E,Z)-2,3′-diene VPA",significantly reduced affinity for the liver
same,Affinity for / accumulation in the liver (in words),"[3]; listed as (E,Z)-2,3′-diene-VPA",markedly reduced affinities for liver
"CCCC(CCC)C(=O)[O-].[Na+] [332059A, Sodium 2-propylpentanoate, reference compound]",ED50,PTZ-induced seizures,158 mg/kg
same,TOX: N/F = number of animals that failed the rotarod test to numbers tested,"[4]; 300 mg/kg, 0.25 h",0/4
same,TOX: N/F = number of animals that failed the rotarod test to numbers tested,"[4]; 300 mg/kg, 0.5 h",0/4
same,TOX: N/F = number of animals that failed the rotarod test to numbers tested,"[4]; 300 mg/kg, 1.0 h",0/4
same,TOX: N/F = number of animals that failed the rotarod test to numbers tested,"[4]; 300 mg/kg, 2.0 h",0/4
same,TOX: N/F = number of animals that failed the rotarod test to numbers tested,"[4]; 300 mg/kg, 4.0 h",0/4
same,TOX: N/F = number of animals that failed the rotarod test to numbers tested,"[4]; 400 mg/kg, 0.5 h",0/4
same,TOX: N/F = number of animals that failed the rotarod test to numbers tested,"[4]; 400 mg/kg, 1.0 h",0/4
same,TOX: N/F = number of animals that failed the rotarod test to numbers tested,"[4]; 400 mg/kg, 2.0 h",0/4
same,"Neural tube defects leading to spina bifida, share of children born to treated mothers",[5],1-2%
"C=C/C=C(\CCC)C(=O)O [(E)-2,4-diene-VPA, 2-propylpent-(E)-2,4-dienoic acid]",Lipid accumulation in rat liver,rat liver,induce massive lipid accumulation in rat liver
